Data on 11 compounds can be found in PubChem BioAssay AID2060358 (Molecular Pharmacology Branch, DTP, NCI, 2025).

The experiment concerns 254851-301-R-J1-PDC spheroids, viability % test/control. The experiment can be described thus: Anticancer human tumor 254851-301-R-J1-PDC patient-derived colon carcinoma cell line growth inhibition [TAK]. As to conditions: spheroids with HUVEC and MSC; for viability, T/C: stronger effect = lower value. The text has this: Combinatorial screen of targeted agents with TAK-243 and ipatasertib in multi-cell type tumor spheroids
A high-throughput screen of multi-cell type tumor spheroids was designed to identify active combinations of targeted small molecules and TAK-243 or ipatasertib. Complex spheroids include a stromal component modeled by human endothelial cells (HUVEC) and fibroblasts modeled by human mesenchymal stem cells (MSCs). The concentration ranges selected for each drug and investigational agent were based upon clinically achievable concentrations if the clinical Cmax of the agent was known.
Compounds. The drugs and investigational agents: TAK-243 (785004), ipatasertib (767898), everolimus (733504), selumetinib (741078), bortezomib (756655), trametinib (758246), ixazomib (758254), vemurafenib (761431), dabrafenib (764134), sapanisertib (764658), alpelisib (765974), and copanlisib (816437), were obtained from the National Cancer Institute (NCI) Developmental Therapeutics Program Chemical Repository. The FDA-approved anticancer drug set is available from the NCI Developmental Therapeutics Program. […] The stock solutions were prepared in dimethyl sulfoxide (DMSO, Sigma-Aldrich, St. Louis, MO, cat. D2650) at 800-fold the tested concentration and stored at -70 degrees C prior to their use. All drugs and investigational agents were tested over a range starting from a high concentration at or near the clinical Cmax and decreasing in half-log increments. If the clinical Cmax for an agent had not been determined, the highest concentration tested was 10 microM.
NCI60 Cell Culture. NCI60 cell lines were obtained from the NCI Developmental Therapeutics Program Tumor Repository. For each lot of cells, the Repository performed Applied Biosystems AmpFLSTR Identifiler testing with PCR amplification to confirm consistency with the published Identifier STR profile for each cell line. Cells were kept in continuous culture for no more than 20 passages. The optimal seeding densities for each of the cell lines at each time point assessed were determined prior to performing the concentration response studies. Briefly, the NCI60 human tumor lines were grown as monolayers in RPMI 1640 medium supplemented with 10% FBS and 2 mmol/L L-glutamine.
An additional 2 lines were from the NCI60 cell line panel including melanomas, MALME-3M and SK-MEL-2. Pooled donor human umbilical vein endothelial cells (HUVEC, Lonza, cat. CC-2519) and human mesenchymal stem cells (hMSC, Lonza, cat. PT-2501) were purchased from Lonza (Walkersville, MD).
PDMR cell lines were grown in complete medium (DC medium): Dulbecco's modified Eagle's medium (DMEM)/F12 supplemented with 5% fetal bovine serum (FBS), 2 mM L-glutamine, 100 U/mL penicillin and 100 µg/ml streptomycin, 0.4 µg/ml hydrocortisone, 10 ng/ml epidermal growth factor (EGF) recombinant human protein, 24 µg/mL adenine, and 0.1 mg/mL primocin. During culture from frozen stock vials, PDMR cells were cultured in the same medium containing 10 µM Y-27632 (see Table 3). The PDCs were cultured in complete DMEM/F12 media without 10 microM Y-27632 dihydrochloride for at least two passages prior to the screen. The pooled donor HUVEC and hMSC were cultured in endothelial cell growth medium 2 (PromoCell, Heidelberg, Germany, cat. C-22011) and mesenchymal stem cell growth medium 2 (PromoCell, cat. C-28009), respectively. For all experiments, HUVEC and hMSC were used at passages </=5.
For the pre-screen, cell seeding densities were determined from a titration spanning the range from 5,000 to 313 cells per well. The mct-spheroids including 60% malignant cells, 25% HUVEC and 15% MSC dispensed as a mixture into U-bottom Ultra-Low Attachment 384-well plates (Corning, NY)
High-throughput Drug Combination Screening.
Prior to their inoculation into 384-well plates, malignant cells, HUVEC, and hMSC were removed from T flasks using TrypLE express (Thermo Fisher Scientific, cat. 12605036) and harvested by centrifugation for 5 min at 233 x g. […]

One may read the viability, T/C as the ratio of treated to control. One may read the IC50 as the point on the concentration scale where inhibition reaches its midpoint.

Structures are written as SMILES. “And” between values parts separate entries of the source, which are not always exact repeats. Equal values may be shown once.
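Note: spheroids exposed to drugs for seven days before viability readout.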

For the compound `CC(=O)Nc1cccc(-n2c(=O)n(C3CC3)c(=O)c3c(Nc4ccc(I)cc4F)n(C)c(=O)c(C)c32)c1`, the viability, T/C reads like this: (compound 94.9 pM) 117% and 114%; (compound 0.0003 µM) 114% and 116%; (compound 0.000949 µM) 105% and 107%; (compound 0.003 µM) 117% and 99%; (compound 0.00949 µM) 97.5% and 83.9%; (compound 0.03 µM) 16.8% and 18.9%. Further, the IC50 (curve of compound) was 18.7 nM and 17 nM.
Regarding `CC(C)(C)c1nc(-c2cccc(NS(=O)(=O)c3c(F)cccc3F)c2F)c(-c2ccnc(N)n2)s1`, the viability, T/C is 116% and 118% (compound 0.0316 µM); 105% (compound 0.1 µM); 92.3% and 86.4% (compound 0.316 µM); 82.1% and 82.5% (compound 1 µM); 86.8% and 82.2% (compound 3.16 µM); 80.3% and 77.6% (compound 10 µM). For the same compound, the IC50 (curve of compound) is greater than 10000 nM.
As for `CC(C)CC(NC(=O)C(Cc1ccccc1)NC(=O)c1cnccn1)B(O)O` (configuration not stated), the viability, T/C (compound 31.6 pM) was 118% and 114%; the viability, T/C (compound 0.0001 µM) is 107%; the viability, T/C (compound 0.000316 µM) was 111% and 101%; the viability, T/C (compound 0.001 µM) was 98.9% and 100%; the viability, T/C (compound 0.00316 µM) is 98.5% and 99.1%; the viability, T/C (compound 0.01 µM) is 75.7% and 80.8%. Besides, the IC50 (curve of compound) was greater than 10 nM.
Consider `CC(C)CC(NC(=O)CNC(=O)c1cc(Cl)ccc1Cl)B1OC(=O)CC(CC(=O)O)(C(=O)O)O1` (configuration not stated), for which the viability, T/C runs as follows: (compound 0.000316 µM) 110% and 112%; (compound 0.001 µM) 110%; (compound 0.00316 µM) 96.8% and 99.7%; (compound 0.01 µM) 94.7% and 102%; (compound 0.0316 µM) 78.2%; (compound 0.1 µM) 18.6% and 24.4%. Besides, the IC50 (curve of compound) was 53.2 nM and 58.1 nM.
As to `CC(C)NCC(C(=O)N1CCN(c2ncnc3c2C(C)CC3O)CC1)c1ccc(Cl)cc1` (configuration not stated), the viability, T/C reads like this: (compound 0.3 µM) 91.8% [middle of 10 runs]; (compound 0.949 µM) 91.8% [middle of 10 runs]; (compound 3 µM) 95% [middle of 10 runs]; (compound 9.49 µM) 91.9% [middle of 10 runs]; (compound 30 µM) 86% [middle of 10 runs]. Also, the IC50 by setting is: (compound alone, run of 02/28/2020) greater than 30000 nM; (compound alone, run of 03/19/2020) greater than 30000 nM.
As to `CC(C)n1nc(-c2ccc3oc(N)nc3c2)c2c(N)ncnc21`, the viability, T/C by setting is: (compound 0.000316 µM) 125% and 110%; (compound 0.001 µM) 104% and 109%; (compound 0.00316 µM) 89.8% and 90.4%; (compound 0.01 µM) 76.5% and 81.7%; (compound 0.0316 µM) 55.7% and 52.2%; (compound 0.1 µM) 34.5% and 34.2%. Besides, the IC50 (curve of compound) is 42.5 nM and 40.3 nM.
Turning to `CCCS(=O)(=O)Nc1ccc(F)c(C(=O)c2c[nH]c3ncc(-c4ccc(Cl)cc4)cc23)c1F`, the viability, T/C by setting is: (compound 0.316 µM) 109% and 106%; (compound 1 µM) 93.3% and 90.5%; (compound 3.16 µM) 84.6% and 79.4%; (compound 10 µM) 72.3% and 77.4%; (compound 31.6 µM) 73.7% and 71.4%; (compound 100 µM) 63.9% and 73.8%. Besides, under “curve of compound”, the IC50 is greater than 100000 nM.
On to `COC1CC2CCC(C)C(O)(O2)C(=O)C(=O)N2CCCCC2C(=O)OC(C(C)CC2CCC(OCCO)C(OC)C2)CC(=O)C(C)C=C(C)C(O)C(OC)C(=O)C(C)CC(C)C=CC=CC=C1C` (configuration not stated), for which the viability, T/C was 114% and 108% (compound 0.000316 µM); 109% and 92% (compound 0.001 µM); 101% and 89.6% (compound 0.00316 µM); 101% and 91.6% (compound 0.01 µM); 96% and 85.4% (compound 0.0316 µM); 98.1% and 84% (compound 0.1 µM). In addition, where the note is “curve of compound”, the IC50 was greater than 100 nM.
`COc1c(OCCCN2CCOCC2)ccc2c3n(c(=NC(=O)c4cnc(N)nc4)nc12)CCN3`: the viability, T/C is, setting by setting: (compound 0.00316 µM) 110% and 106%; (compound 0.01 µM) 96.2% and 96.4%; (compound 0.0316 µM) 87.8% and 82.2%; (compound 0.1 µM) 78% and 71.7%; (compound 0.316 µM) 75.6% and 65.8%; (compound 1 µM) 59.5% and 56.5%. Also, the IC50 (curve of compound) is greater than 1000 nM.
In the case of `Cc1nc(NC(=O)N2CCCC2C(N)=O)sc1-c1ccnc(C(C)(C)C(F)(F)F)c1` (configuration not stated), the viability, T/C was 123% and 110% (compound 0.0316 µM); 103% and 110% (compound 0.1 µM); 95.7% and 91.7% (compound 0.316 µM); 92.6% and 92.3% (compound 1 µM); 84% and 79.1% (compound 3.16 µM); 70.8% and 71.9% (compound 10 µM). Besides, the IC50 (curve of compound) was greater than 10000 nM.
On to `Cn1cnc2c(F)c(Nc3ccc(Br)cc3Cl)c(C(=O)NOCCO)cc21`, for which the viability, T/C (compound 0.00949 µM) was 119% and 114%; the viability, T/C (compound 0.03 µM) is 120% and 117%; the viability, T/C (compound 0.0949 µM) was 105% and 117%; the viability, T/C (compound 0.3 µM) is 103% and 98.6%; the viability, T/C (compound 0.949 µM) is 76.3% and 84.4%; the viability, T/C (compound 3 µM) is 12.5% and 22.5%. For the same compound, the IC50 (curve of compound) was 1510 nM and 1760 nM.
